From patent US6663859B2, “Compositions for enhancing the immune response” (Bioenergy, Inc., priority 2000, dated 2003)

Experiments:
HL-60 cells [1] = test: Cellular proliferation of HL-60 cells (hemocytometer count); format: cell-based, human; conditions: for reduction in cell growth compared to control HL-60 cells: 96-hour incubation; for Cell Growth (10^5 cells/ml): Table 1, 96 h incubation, initial 2.5×10^5 cells/ml, RA 1.0 μmol/L, ribose 10 mmol/L; for change in cell number over the 96-hour incubation period: initial cell density 2.5×10^5
Source text: (§1) For the in vitro studies, HL-60 cells (American Type Culture Collection, Manassas, Va.), an immortal human lymphocyte cell line, at approximately passage twenty were maintained between 2.0×10^5 cells/ml in RPMI 1640 medium containing HEPES buffer (Cellgro, Mediatech Inc., Herdon, Va.), 2 mmol/L L-glutamine (Cellgro), 1% antimycotic (Cellgro), 10% heat treated fetal bovine serum (FBS: GibcoBRL; Life Technologies, Baltimore, Md.), and 0.1% gentamicin (GibcoBRL).
(§2) Experimental flasks were initiated at a concentration of 2.5×10^5 cells/ml. Differentiation of HL-60 cells was induced using all-trans retinoic acid (RA) prepared in 95% ethanol. RA was added to flasks at a concentration of 1.0 μmol/L such that the ethanol concentration added to the flask was less than 0.1%. D-Ribose preparations were made by dissolving powdered ribose (Bioenergy, Minneapolis, Minn.) in RPMI medium followed by sterile filtration.
(§3) The specificity of ribose, time and dose response was examined. The doses of ribose were 1, 5, 10, 25 and 50 mmol/L. In experiments in which one concentration of ribose was used, 10 mmol/L was the dose chosen. The effect of timing of the dose was explored by adding ribose at various times after the addition of the retinoic acid. Specificity was examined by substituting glucose, to eliminate the nonspecific effects of ribose as a substrate for glycolysis or gluconeogenesis, or change in osmolarity.
(§4) Following ninety-six hours of incubated (or as specified), cells were harvested, counted by hemocytometer and viability assessed using trypan dye exclusion. For growth and viability determinations, cells were counted three times within one experiment. Results shown were from at least three experiments. Cells were washed twice with phosphate buffered salt solution (PBS) and brought to a concentration of 2.0×10^7 cells/ml PBS.

[2] = Viability of HL-60 cells (trypan dye exclusion); format: cell-based, human; conditions: human, HL-60 cells; for viability at 96 h: Table 1, 96 h incubation, RA 1.0 μmol/L, ribose 10 mmol/L
Source text: as §1, §2, §3, §4

HL-60 cells [3] = test: Viability of HL-60 cells (trypan dye exclusion); format: cell-based, human; conditions: summary of Table 1
Source text: as §1, §2, §3, §4

HL-60 cells [4] = test: Cell surface markers of maturity (CD11b, CD117) on HL-60 cells; format: cell-based, human; conditions: for expression of cell surface marker reactive with CD11b antibody: FIG. 1
Protocol: Cell samples for the detection of cell surface molecules were prepared for flow cytometry in 12×17 mm capped conical tubes. To each tube, 30 μl of PBS containing 2% FBS was added. To each of triplicate tubes, a phycoerythrin (PE) labeled antibody (PharMingen, San Diego, Calif.) was added: 20 μl of CD1 lb, 20 μl of CD117, or 20 μl of isotype control (Mouse IgG1,κ). Fifty microliters of prepared cell suspension were added to each tube, followed by gentle mixing. Tubes were placed on ice for forty-five minutes after which 2 ml of cold PBS containing 2% FBS were added to each tube. Tubes were centrifuged (Jouann, at 300×g for 10 minutes) at approximately 5° C. and supernatant removed. One ml of cold 0.5% paraformaldehyde solution was added to the pellet and tubes were vortexed immediately. Prior to analysis, fixed cells were stored in the dark at approximately 4° C. for a period no longer than one week. Samples were analyzed on FACScan. Data were analyzed using WinMDI Software (Scripps Institute, build 1301-19-200, San Diego, Calif.).
Differentiation is accompanied by changes in the surface markers CD117 and CD11b. CD117 is a tyrosine kinase receptor that is expressed in high quantities on undifferentiated cells, while CD11b is a cell adhesion molecule expressed in high quantities on differentiated cells. After harvest, aliquots of the ribose and glucose control cells were allowed to differentiate with retinoic acid as above. An ELISA assay was set up with antibodies against CD117 or CD11b.

HL-60 cells [5] = test: ATP determination in HL-60 cells; format: cell-based, human; conditions: HL-60 control about five μmoles per 10^9 cells
Protocol: Determination of ATP was performed using a kit purchased from Sigma Diagnostics (St. Louis, Mo.) with slight modifications. 1.0 ml of 12% trichloroacetic acid (TCA) and 1.0 ml of prepared cell suspension (1×10^7 cells/ml) were combined, vortexed and placed on ice for five minutes. Tubes were then centrifuged (Jouann, at 2000×g for 8 minutes) to obtain a clear supernatant. The following reagents were then added into vials containing 0.3 mg NADH: 1.0 ml phosphoglyceraldehyde buffered solution, 1.5 ml water, and 0.15 ml cell supernatant. Samples were distributed into two tubes. One tube was used to obtain an initial spectrophotometric absorbance at 340 nm. Fifteen μl of GAPD/PGK enzyme mixture were added to the second tube and read after ten minutes. Changes in absorbance were calculated and results were expressed as μmol of ATP per 1×10^9 cells.

HL-60 cells [6] = test: Respiratory burst (superoxide anion, ferricytochrome c reduction, PMA stimulated); format: cell-based, human; conditions: for increase in rate of superoxide generation compared to HL-60 control cells: FIG. 3
Protocol: Specific cells undergo an increase in oxygen uptake when presented with appropriate stimuli, such as invading microorganisms or phorbol ester. The cells utilize this oxygen to produce a series of free radicals that kill the invading microorganism. Production of free radicals occurs via an enzyme called NADPH oxidase. Free radical production is measured spectrophotometrically by a change in color of ferricytochrome c.
The ability of cells to produce superoxide anion was measured by the reduction of ferricytochrome c via a microtiter plate (Levy et al (1990)). Fifty microliters of cells (1×10^7 cells/ml) previously incubated with retinoic acid, ribose or glucose were plated in triplicate wells of a microtiter plate. Each well contained 10 μl of 1.5 mol/L ferricytochrome c substrate and 100 μl of DPBD containing 1 mmol/L glucose. Cells were stimulated to produce superoxide anion by addition of 10 μl of 1.6 μmol/L phorbol 12-myristate 13-acetate (PMA). A kinetic reading on dual wavelengths of 540-490 nM was taken using a Molecular Devices microtiter plate reader (UVMax, Menlo Park, Calif.). Change in absorbance was measured over ten minutes. In order to ensure that reduction of ferricytochrome was the result of superoxide anion, experimental samples were incubated with 10 μl of bovine erythrocyte superoxide dismutase (7500 units/ml). […] Respiratory burst was expressed as the change in optical density/10^6 cells.

spleen cells = test: PHA-stimulated spleen cell proliferation (tritiated thymidine); format: cell-based, mouse
Protocol: (§5) Mice are the species of choice for studies of the immune response because of the numerous nutritional and interventional studies that have been performed on mice. Details of its immune response are well studied and the inbred lines used eliminate any genetic differences. Spleens and thymus were removed from weanling Swiss ICR mice and cell suspensions prepared. The spleen and thymus cells were plated in a 96-well plate and various levels of ribose added to each well in triplicate. Phytohaemagglutinin (PHA), a T-cell stimulator, was added and the cells incubated for 48 hours. Tritiated Thymidine was then added, the cells harvested 24 hours later, and radioactivity incorporated was determined by liquid scintillation counting.

thymus cells = test: PHA-stimulated thymus cell proliferation (tritiated thymidine); format: cell-based, mouse
Protocol: as §5

weanling Swiss ICR mice = test: In vivo loading with ribose, planned immune response and pathogen challenge studies; design: species or system mouse; conditions: expected result
Source text: For the in vivo studies, weanling Swiss ICR mice (three weeks old) were fed a fully nutritious, casein-based diet (AIN 93G).
This pilate study will be followed by a broader study with ten animals per groups. Popliteal lymphoproliferation, delayed-type hypersensitivity (DTH) and thymic and splenic lymphocyte proliferation will be tested. To determine popliteal lymphoproliferation, the popliteal node will be excised and weighed after antigen injection into the hind-leg footpad. DTH can be assessed by measuring ear swelling after sensitization and stimulation with the prop antigen dinitrofluorobenzene. Thymic and splenic proliferation will be determined from cells isolated from the thymus and spleen and pulsed with tritiated thymidine. These four measures are all T-cell responses.
Another group of animals will be fed as above. […] T-cell numbers, proliferation and migration, B-cell numbers, NK cell numbers and migration, neutrophil numbers, migration and oxidative burst will be determined. […] Cells will be quantitated by flow cytometry, oxidative burst will be determined spectrophotometrically and proliferation by incorporation of tritiated thymidine. Cell migration will be determined by flow cytometry as the percentage of cells. In addition, the activity of myeloperoxidase, a degradative enzyme specific to neutrophils, can be measured in lung tissue to determine this cell's migration. […]

[7] = as much as 20 gm; cited from earlier work
various cell cultures = conditions: 12.5 to 50 mM; Marini et al 1985; cited from earlier work
[8] = healthy males; U.S. Pat. No. 6,159,942; cited from earlier work
[9] = 10 mM ribose, cells differentiated with retinoic acid

| Structure (SMILES) | reduction in cell growth compared to control HL-60 cells (HL-60 cells [1]) [%] | Cell Growth (10^5 cells/ml) (HL-60 cells [1]) | change in cell number over the 96-hour incubation period (HL-60 cells [1]) | viability at 96 h [2] [%] | change in viability versus control (HL-60 cells [3]) | expression of cell surface marker reactive with CD11b antibody (HL-60 cells [4]; ribose added to RA) | increase in rate of superoxide generation compared to HL-60 control cells (HL-60 cells [6]) | effect on incorporation of tritiated thymidine / metabolic processes (various cell cultures) | further results |
| --- | --- | --- | --- | --- | --- | --- | --- | --- | --- |
| O=C[C@H](O)[C@H](O)[C@H](O)CO [D-Ribose] | 30 | 6.68 +/− 1.29 10^5 cells/ml | nearly tripled in number | 86.3 | slight reductions in viability | increased further | no significant increase | deeply derange metabolic processes | increase in CD11b (HL-60 cells [4]; [9]): threefold increase; reduction in CD117 (HL-60 cells [4]; [9]): 30%; immature cell surface marker recognized by CD117 antibody (HL-60 cells [4]; FIG. 2, ribose added to RA): reduced; change in ATP concentration versus HL-60 control (HL-60 cells [5]): slightly increased; spleen cell proliferation (spleen cells; low levels of ribose): slight, but non-significant stimulation; spleen cell proliferation (spleen cells; ribose above 5 mM): tended to inhibit proliferation; thymus cell proliferation (thymus cells; low levels of ribose): slight, but non-significant stimulation; thymus cell proliferation (thymus cells; ribose above 5 mM): tended to inhibit proliferation; immune response parameters after diet supplementation and pathogen challenge (weanling Swiss ICR mice): benefit the immune response; tolerability [7]: well tolerated; energy level (skeletal muscle ATP, power output) [8]: enhances the energy level |
| CC1=C(/C=C/C(C)=C/C=C/C(C)=C/C(=O)O)C(C)(C)CCC1 [RA, all-trans retinoic acid] | 30 | 7.01 +/− 2.14 10^5 cells/ml | nearly tripled in number | 84.5 | slight reductions in viability | high level of expression | 5.5 fold | – | Growth (cell/ml) (HL-60 cells [1]; Table 2, mean ± SD, n = 5): 727000 ± 102000 cells/mL; viability at 1 μmol/L ([2]; Table 2, mean ± SD, n = 5): 82.6 ± 3.3%; CD117 (%) (HL-60 cells [4]; Table 2, immature cell marker, mean ± SD, n = 5): 33.4 ± 9.5^A %; CD11b (%) (HL-60 cells [4]; Table 2, mature cell marker, mean ± SD, n = 5): 35.7 ± 7.5^B %; Respiratory Burst (% of RA control) (HL-60 cells [6]; Table 2, mean ± SD, n = 5): 100^B % of RA control |
| [2H]C(=O)C[C@H](O)[C@H](O)CO [deoxy-D-Ribose, reference compound] | – | – | – | – | – | – | – | deeply derange metabolic processes | – |
